# Experimental data published in patent US12002595B2, “Separation of metal ions by liquid-liquid extraction” (priority 2016, dated 2024).
# Read-outs that look alike come from different tables or passages of the source.
# Legend:
# [1] = Extraction by HDEHP at constant pH with 3,4,3-LI(1,2-HOPO) as hold-back reagent; conditions: 1 mM ligand, 0.1 M HNO3/1.9 M NaNO3; for % Extraction: extraction of ^243Americium(III)
# Description: In FIG. 26, aqueous phase: [ligand]=1 mM, buffer 0.1 M HNO3/1.9 M NaNO3. Organic phase: HDEHP diluted in kerosene. [HDEHP]=0.05, 0.10, 0.25, 0.50, 1.0, or 2.0 M. T=25° C. Volume organic phase/Volume aqueous phase=1. Initial metal concentrations: [Pu-242]=10 μM, [Am-243]=0.25 μM, or [Gd-153]=0.16 nM. Phases analyzed after one contact. Contact time: 30 min.
# The separation factor values given here must been seen as lower limit since the extraction of Pu(IV) is near zero.
# In FIG. 28, aqueous phase: [ligand]=1 mM, buffer 0.1 M HNO3/1.9 M NaNO3. Organic phase: HDEHP diluted in kerosene. [HDEHP]=0.05, 0.10, 0.25, 0.50, 1.0, or 2.0 M. T=25° C. Volume organic phase/Volume aqueous phase=1. Initial metal concentrations: [Am-243]=0.25 μM, or [Gd-153]=0.16 nM. Phases analyzed after one contact. Contact time: 30 min. Corresponding separation factors (SF) are given on the right Y-axis. SF Gd/Am=Ratio [Gd]/[Am] in the final organic phase/Ratio [Gd]/[Am] in the initial aqueous solution.
# [2] = Gd^3+; 25° C.; cited from earlier work
# [3] = Cd^2+; 25° C.; cited from earlier work
# [4] = La^3+; 25° C.; cited from earlier work
# [5] = Persistence of the metal complex versus acidity; assay type: binding; conditions: Hf^4+
# [6] = Persistence of the metal complex versus acidity; assay type: binding; conditions: Zr^4+
# [7] = Am^3+; 25° C.; cited from earlier work
# [8] = UO2^2+; 25° C.; cited from earlier work
# [9] = Back-extraction from 30% TBP in kerosene (modified PUREX) with 343HOPO; conditions: 1 mM 343HOPO, up to 8 M HNO3
# Description: Dotted lines: separation factor U/Pu. Organic phase: 30% TBP in kerosene.
# For Example 20—Example 24, pH measurements were performed with a glass electrode (Metrohm-Micro Combi-response to [H+]) calibrated at 25.0° C. using three NIST standards. Extraction samples were analyzed by liquid scintillation counting (LSC). The distribution coefficient, D(M), of a given metal, M, is defined in Eq. 1, where [M]organic and [M]aqueous are the respective total concentrations of M in the organic and aqueous layers, after extraction. Both concentrations are proportional to the volumetric activity (in Bq/L) determined by LSC. The separation factor, SFM1/M2, between two metals, M1 and M2, and extraction yield were calculated according to Eq. 2 and Eq. 3, respectively.
# In a typical experiment, the solvent (extractant diluted in kerosene) was pre-conditioned by shaking one volume of solvent with three volumes of aqueous phase (typically HNO3) at room temperature for 1 h, thrice. […] Samples were counted for at least 6 min and results were background subtracted. […] Mixtures of ^249Bk and ^249Cf were analyzed using α/β discrimination and energy windows were set to 0-50 keV for low-energy β particles of ^249Bk and 50-1000 keV for α particles of ^249Cf. ^243Am and ^225Ac samples were counted at secular equilibrium.
# [10] = Persistence of the metal complex versus acidity; assay type: binding; conditions: Sn^4+
# [11] = Aqueous solubility of the ligand; assay type: physicochemical; conditions: water; room temperature
# [12] = Pb^2+; 25° C.; cited from earlier work
# [13] = Stability constant (log βML) of ligand-metal complexes; assay type: binding
# Text: Thus far, no stability constant has been published for the actinium (Ac^3+) complex of 3,4,3-LI(1,2-HOPO). Based on the ionic radius of Ac^3+ (1.22 Å; See, D. Lundberg, I. Persson, The size of actinoid(III) ions—structural analysis vs. common misinterpretations, Coord. Chem. Rev. 318 (2016) 131-134. doi:10.1016/j.ccr.2016.04.003) and stability constants determined for other actinide and lanthanide ions, the stability of the Ac^3+ complex is expected to be very low, with a log β[AcL]- value of about 12 (FIG. 22). Stability of constant of 3,4,3-LI(1,2-HOPO) complexes with trivalent ions as a function of the ionic radius of the metal is shown in FIG. 22. […] Ionic radius values taken from Lundberg et al. for nona-coordinated metal ions. The Ac^3+ data point is an estimate. See, Lundberg, I. Persson, The size of actinoid(III) ions—structural analysis vs. common misinterpretations, Coord. Chem. Rev. 318 (2016) 131-134. doi:10.1016/j.ccr.2016.04.003; D. Lundberg, I. Persson, L. Eriksson, P. D'Angelo, S. De Panfilis, Structural Study of the N,N′-Dimethylpropyleneurea Solvated Lanthanoid(III) Ions in Solution and Solid State with an Analysis of the Ionic Radii of Lanthanoid(III) Ions, Inorg. Chem. 49 (2010) 4420-4432. doi:10.1021/ic100034q.
compound,measurement,setting,value
"O=C(NCCCN(CCCCN(CCCNC(=O)c1cccc(=O)n1O)C(=O)c1cccc(=O)n1O)C(=O)c1cccc(=O)n1O)c1cccc(=O)n1O [3,4,3-LI(1,2-HOPO)]",SF Gd^3+/Am^3+,[1]; HDEHP 0.05 M,24.1
same,% Extraction,[1]; HDEHP 0.05 M,0.21%
same,SF Gd^3+/Am^3+,[1]; HDEHP 0.10 M,23.3
same,% Extraction,[1]; HDEHP 0.10 M,1.32%
same,SF Gd^3+/Am^3+,[1]; HDEHP 0.25 M,25.3
same,% Extraction,[1]; HDEHP 0.25 M,10.08%
same,SF Gd^3+/Am^3+,[1]; HDEHP 0.50 M,27.0
same,% Extraction,[1]; HDEHP 0.50 M,30.27%
same,SF Gd^3+/Am^3+,[1]; HDEHP 1.00 M,45.6
same,% Extraction,[1]; HDEHP 1.00 M,49.98%
same,SF Gd^3+/Am^3+,[1]; HDEHP 2.00 M,99.8
same,% Extraction,[1]; HDEHP 2.00 M,57.29%
same,log βML,[2],20.5 ± 0.1
same,log βML,[3],16.1 ± 0.3
same,log βML,[4],16.4 ± 0.4
same,acidity range over which the ligand stays bound,[5],from pH 8 to strongly acidic solutions (at least 6 M HCl)
same,acidity range over which the ligand stays bound,[6],from pH 8 to strongly acidic solutions (at least 6 M HCl)
same,log βML,[7],20.4 ± 0.2
same,log βML,[8],18.0 ± 0.4
same,SFU/Pu,[9],"≤ 5,800"
same,acidity range over which the ligand stays bound,[10],from pH 8 to 1 M HCl
same,solubility,[11],1000 mM
same,log βML,[12],18.0 ± 0.2
same,log β[AcL]-,"[13]; Ac^3+ complex, expected from ionic radius (1.22 Å) and constants of other ions",about 12
same,log βML,"[13]; Ac^3+, estimate based on ionic radius",10-14
